How the values were obtained:
Conditions in all cases: 48 h
[1] = test system: SEM cells; test: AUC of viability dose-response curve (% viability x log10 dose units); higher = less sensitive
Summary of the method: (§1)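 In 1536-well plates, leukemia cells adapted to each medium (500 or 1000 cells/well) were exposed for 48 h at 37°C to library compounds in DMSO across 11 threefold doses, 47 μM down to 0.79 nM. Viability was read by CellTiter-Glo One luminescence and normalised per plate to DMSO and cell-free wells. A four-parameter log-logistic fit over log10 doses was integrated by trapezoidal rule. This yielded the area under the curve, with over-full-viability curves scaled and quality-control failures dropped.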

[2] = test system: NOMO1; test: as above
Summary of the method: as §1

[3] = test system: P12-Ichikawa; test: as above
Summary of the method: as §1

[4] = test system: SEM cells; test: cell viability relative to DMSO control; higher = less cytotoxic
Summary of the method: (§2)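 NOMO1 or SEM cells were plated at 500 cells/well and P12-Ichikawa cells at 1000 cells/well in 1536-well plates (5 μl), after each leukemia line had been adapted for at least four passages in each medium. Pin dosing delivered library compounds in DMSO at 11 threefold concentrations, 47 μM to 0.79 nM. CellTiter-Glo One luminescence was read after 48 h at 37°C. Viability is reported as a per-plate percentage of DMSO wells, with cell-free wells as background.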

[5] = test system: NOMO1; test: as above
Summary of the method: as §2

[6] = test system: P12-Ichikawa; test: as above
Summary of the method: as §2

CC(C)C[C@H](NC(=O)c1cc2ccccc2s1)C(=O)N1CCN(C(=O)[C@H](CO)N[S+](=O)([O-])c2ccc(Cl)cc2Cl)CC1
AUC of viability dose-response curve
Conditions | [1] | [2] | [3]
HPLM + 10% dialyzed FBS | 451 | 461 | 462
RPMI 5 mM glucose + 10% FBS | 453 | 468 | 464
RPMI 5 mM glucose + 10% dialyzed FBS | 439 | 436 | 462

NNC(=O)c1ccncc1
cell viability [%]
Conditions | [4] | [5] | [6]
HPLM + 10% dialyzed FBS, 0.000781 µM | 84.6 | 90.3 | 111
HPLM + 10% dialyzed FBS, 0.00234 µM | 79.5 | 99.2 | 124
HPLM + 10% dialyzed FBS, 0.00702 µM | 73.6 | 117 | 119
HPLM + 10% dialyzed FBS, 0.0211 µM | 92.9 | 123 | 121
HPLM + 10% dialyzed FBS, 0.0632 µM | 93.8 | 121 | 121
HPLM + 10% dialyzed FBS, 0.19 µM | 86.6 | 124 | 127
HPLM + 10% dialyzed FBS, 0.569 µM | 29.2 | 125 | 127
HPLM + 10% dialyzed FBS, 1.71 µM | 42.5 | 123 | 117
HPLM + 10% dialyzed FBS, 5.12 µM | 95.7 | 137 | 101
HPLM + 10% dialyzed FBS, 15.4 µM | 92.3 | 131 | 103
HPLM + 10% dialyzed FBS, 46.1 µM | 82.4 | 123 | 85.7
RPMI 5 mM glucose + 10% FBS, 0.000781 µM | 107 | 108 | 106
RPMI 5 mM glucose + 10% FBS, 0.00234 µM | 98.6 | 111 | 107
RPMI 5 mM glucose + 10% FBS, 0.00702 µM | 97.2 | 114 | 111
RPMI 5 mM glucose + 10% FBS, 0.0211 µM | 98.7 | 109 | 124
RPMI 5 mM glucose + 10% FBS, 0.0632 µM | 116 | 122 | 111
RPMI 5 mM glucose + 10% FBS, 0.19 µM | 115 | 135 | 114
RPMI 5 mM glucose + 10% FBS, 0.569 µM | 37.3 | 123 | 122
RPMI 5 mM glucose + 10% FBS, 1.71 µM | 46.7 | 115 | 120
RPMI 5 mM glucose + 10% FBS, 5.12 µM | 91.6 | 128 | 116
RPMI 5 mM glucose + 10% FBS, 15.4 µM | 94.9 | 119 | 107
RPMI 5 mM glucose + 10% FBS, 46.1 µM | 87.6 | 130 | 84.7
RPMI 5 mM glucose + 10% dialyzed FBS, 0.000781 µM | 107 | 120 | 115
RPMI 5 mM glucose + 10% dialyzed FBS, 0.00234 µM | 110 | 117 | 122
RPMI 5 mM glucose + 10% dialyzed FBS, 0.00702 µM | 92.4 | 110 | 113
RPMI 5 mM glucose + 10% dialyzed FBS, 0.0211 µM | 97.2 | 117 | 119
RPMI 5 mM glucose + 10% dialyzed FBS, 0.0632 µM | 98.1 | 119 | 116
RPMI 5 mM glucose + 10% dialyzed FBS, 0.19 µM | 105 | 118 | 127
RPMI 5 mM glucose + 10% dialyzed FBS, 0.569 µM | 37.2 | 119 | 118
RPMI 5 mM glucose + 10% dialyzed FBS, 1.71 µM | 34.9 | 126 | 121
RPMI 5 mM glucose + 10% dialyzed FBS, 5.12 µM | 101 | 124 | 103
RPMI 5 mM glucose + 10% dialyzed FBS, 15.4 µM | 95.6 | 126 | 108
RPMI 5 mM glucose + 10% dialyzed FBS, 46.1 µM | 82.8 | 125 | 76.2

AUC of viability dose-response curve
Conditions | HPLM + 10% dialyzed FBS | RPMI 5 mM glucose + 10% FBS | RPMI 5 mM glucose + 10% dialyzed FBS
[2] | 454 | 444 | 456
[3] | 453 | 468 | 460

Reference: the supplement of paper PMC11451515
